# Experimental data reported in publication PMC7007966 (Journal of medicinal chemistry, 2019).
# “Also recorded” adds a separate entry of the source.
# Columns and labels:
# [1] = target: T1, rat DOR (C6-DOR membranes) (Rattus norvegicus, UniProt P33533); details: [35S]-GTPγS stimulation relative to DPDPE; cited from earlier work
# [2] = target: T2, rat MOR (C6-MOR membranes) (Rattus norvegicus, UniProt P33535); assay: Radioligand competition binding, [3H]-diprenorphine displacement; details: ratio of binding affinities; 1A-D, 2B, 2D previously reported compounds
# [3] = target: T2, rat MOR (C6-MOR membranes); assay: [35S]-GTPγS binding assay; assay type: biochemical; details: [35S]-GTPγS stimulation relative to DAMGO
# [4] = target: T1, rat DOR (C6-DOR membranes); assay: [35S]-GTPγS binding assay; assay type: biochemical; details: for DOR efficacy (in words): [35S]-GTPγS stimulation relative to DPDPE at 10 μM
# [5] = target: T3, human KOR (CHO-KOR membranes) (Homo sapiens, UniProt P41145); assay: Radioligand competition binding, [3H]-diprenorphine displacement; details: competitive displacement of [3H]-diprenorphine, membrane preparations
# [6] = target: T3, human KOR (CHO-KOR membranes); assay: [35S]-GTPγS binding assay; assay type: biochemical; details: [35S]-GTPγS stimulation relative to U69,593 at 10 μM
SMILES,MOR efficacy (in words) [3],DOR efficacy (in words) [4],other results
Cc1cc(O)cc(C)c1C[C@H](N)C(=O)N[C@@H]1CCNc2ccc(Cc3ccccc3)cc21.O=C(O)C(F)(F)F [Compound 1A],–,–,"DOR efficacy (in words), previously reported compounds [1]: low DOR agonist activity"
Cc1cc(O)cc(C)c1C[C@H](N)C(=O)N[C@@H]1CCNc2ccc(Cc3ccc4ccccc4c3)cc21.O=C(O)C(F)(F)F [Compound 1B],–,–,selectivity for MOR over DOR (DOR Ki/MOR Ki) [2]: 100 fold
Cc1cc(O)cc(C)c1C[C@H](N)C(=O)N[C@@H]1CCNc2ccc(Cc3cc4ccccc4o3)cc21.O=C(O)C(F)(F)F [Compound 1F],MOR agonists,DOR antagonists,–
CC(=O)N1CC[C@@H](NC(=O)[C@@H](N)Cc2c(C)cc(O)cc2C)c2cc(Cc3ccccc3)ccc21.O=C(O)C(F)(F)F [Compound 2A],–,–,"DOR efficacy (in words), previously reported compounds [1]: significant efficacy at DOR"
CC(=O)N1CC[C@@H](NC(=O)[C@@H](N)Cc2c(C)cc(O)cc2C)c2cc(Cc3ccc4ccccc4c3)ccc21.O=C(O)C(F)(F)F [Compound 2B],–,–,"DOR efficacy (in words), previously reported compounds [1]: DOR antagonist profile"
CC(=O)N1CC[C@@H](NC(=O)[C@@H](N)Cc2c(C)cc(O)cc2C)c2cc(Cc3cnc4ccccc4c3)ccc21.O=C(O)C(F)(F)F [Compound 2C],–,significant efficacy at DOR,–
CC(=O)N1CC[C@@H](NC(=O)[C@@H](N)Cc2c(C)cc(O)cc2C)c2cc(CN3CCc4ccccc4C3)ccc21.O=C(O)C(F)(F)F [Compound 2D],–,–,KOR affinity (in words) [5]: relatively high KOR affinity; KOR efficacy (in words) [6]: relatively high KOR affinity and efficacy
CC(=O)N1CC[C@@H](NC(=O)[C@@H](N)Cc2c(C)cc(O)cc2C)c2cc(Cc3cc4ccccc4o3)ccc21.O=C(O)C(F)(F)F [Compound 2F],MOR agonists,significant efficacy at DOR; also recorded: DOR partial agonists,–
Cc1cc(O)cc(C)c1C[C@H](N)C(=O)N[C@@H]1CCN(C(=O)C2CC2)c2ccc(Cc3ccccc3)cc21.O=C(O)C(F)(F)F [Compound 3A],–,significant efficacy at DOR,–
Cc1cc(O)cc(C)c1C[C@H](N)C(=O)N[C@@H]1CCN(C(=O)C2CC2)c2ccc(Cc3ccc4ccccc4c3)cc21.O=C(O)C(F)(F)F [Compound 3B],–,significant efficacy at DOR,–
Cc1cc(O)cc(C)c1C[C@H](N)C(=O)N[C@@H]1CCN(C(=O)C2CC2)c2ccc(Cc3cnc4ccccc4c3)cc21.O=C(O)C(F)(F)F [Compound 3C],–,significant efficacy at DOR,DOR agonist potency (in words) ([4]; [35S]-GTPγS stimulation): subnanomolar
Cc1cc(O)cc(C)c1C[C@H](N)C(=O)N[C@@H]1CCN(C(=O)C2CC2)c2ccc(Cc3cc4ccccc4o3)cc21.O=C(O)C(F)(F)F [Compound 3F],MOR agonists,significant efficacy at DOR; also recorded: DOR partial agonists,–
Cc1cc(O)cc(C)c1C[C@H](N)C(=O)N[C@@H]1CCN(S(C)(=O)=O)c2ccc(Cc3ccccc3)cc21.O=C(O)C(F)(F)F [Compound 4A],–,partial DOR agonism,–
Cc1cc(O)cc(C)c1C[C@H](N)C(=O)N[C@@H]1CCN(S(C)(=O)=O)c2ccc(CN3CCc4ccccc4C3)cc21.O=C(O)C(F)(F)F [Compound 4D],–,–,KOR affinity (in words) [5]: relatively high KOR affinity; KOR efficacy (in words) [6]: relatively high KOR affinity and efficacy
Cc1cc(O)cc(C)c1C[C@H](N)C(=O)N[C@@H]1CCN(S(C)(=O)=O)c2ccc(Cc3cc4ccccc4o3)cc21.O=C(O)C(F)(F)F [Compound 4F],MOR agonists,DOR antagonists,–
Cc1cc(O)cc(C)c1C[C@H](N)C(=O)N[C@@H]1CCN(C(=O)c2ccccc2)c2ccc(Cc3ccc4ccccc4c3)cc21.O=C(O)C(F)(F)F [Compound 5B],partial MOR efficacy,–,–
Cc1cc(O)cc(C)c1C[C@H](N)C(=O)N[C@@H]1CCN(C(=O)c2ccccc2)c2ccc(Cc3cnc4ccccc4c3)cc21.O=C(O)C(F)(F)F [Compound 5C],partial MOR efficacy,–,–
Cc1cc(O)cc(C)c1C[C@H](N)C(=O)N[C@@H]1CCN(C(=O)c2ccccc2)c2ccc(Cc3ccc4c(c3)OCCO4)cc21.O=C(O)C(F)(F)F [Compound 5E],no significant MOR efficacy,–,–
Cc1cc(O)cc(C)c1C[C@H](N)C(=O)N[C@@H]1CCN(C(=O)c2ccccc2)c2ccc(Cc3cc4ccccc4o3)cc21.O=C(O)C(F)(F)F [Compound 5F],MOR partial agonist,DOR antagonist,–
